Test system: 253G1 cells
Test: Rotary culture of 253G1 cells with RWV bioreactor in 10 mL vessel: spheroid formation and proliferation rate
Format: cell-based, human
Details: for Proliferation rate: 5 days, detached with 5 mM EDTA and TrypLE Select
Experimental: To perform three-dimensional culture, 253G1 cells to be seeded were detached into small spheroids (loose cell masses each having a diameter of approximately 50 μm to 200 μm) each consisting of 20 to 40 cells with 5 mM EDTA. The detached 4.9×10^5 253G cells (small spheroids obtained through chemical disrupting) were seeded in an mTeSR1 medium (10 mL) containing the ROCK (Rho-associated kinase) inhibitor Y27632 (Wako Pure Chemical Industries, Ltd., 10 μM) or an mTeSR1 medium (10 mL) free of the ROCK inhibitor Y27632 in a 10 mL RWV vessel (diameter: 5 cm; Synthecon, Incorporated), and rotary-cultured with an RWV bioreactor (Synthecon, Incorporated) at 37° C. and 8 rpm for 3 days. After culturing, a photograph of a phase contrast image of spherical spheroids produced in the culture medium was taken with the inverted microscope Axio Observer (Carl Zeiss) (FIG. 1). In addition, the diameter of each spherical spheroid was measured, and the size distribution was investigated (FIG. 2).
Subsequently, the spherical spheroids were collected, and disrupted by pipetting with a pipette to disperse the cells. The number of the cells was counted by using the automated cell counter, Countess™ (Invitrogen). From the total number of the cells in the culture medium, the proliferation rate relative to the number of the cells seeded (4.9×10^5 cells) was calculated (total number of cells/4.9×10^5 cells).
To determine a more suitable ROCK inhibitor concentration, 253G1 cells were rotary-cultured for 3 days under the same conditions as in the above except that three ROCK inhibitor concentrations (3 μM, 10 μM, or 30 μM) were used. After culturing, the number of spherical spheroids formed was 10 in the case of 3 μM, 50 in the case of 10 μM, and 20 in the case of 30 μM.
To determine a more suitable number of cells to be seeded, 253G1 cells detached into small spheroids each consisting of approximately 20 to 40 cells with 5 mM EDTA and TrypLE™ Select were seeded at 4.27×10^5, 8.55×10^5, or 1.28×10^6 cells in a 10 mL RWV vessel, and rotary-cultured for 5 days in an mTeSR1 medium containing or free of the ROCK inhibitor Y27632 (10 μM) by the same method as in the above (1). After culturing, the number of the cells was counted and the proliferation rate was calculated in the same manner as in the above.
Further, the 253G1 cells detached into small spheroids each consisting of approximately 20 to 40 cells with only 5 mM EDTA were seeded in a 10 mL RWV vessel at a number of cells seeded in the above preferred range, and rotary-cultured in a 10 μM ROCK inhibitor Y27632-containing mTeSR1 medium (10 mL) for 3 days.

[1] = 10 μM in mTeSR1, 4.9×10^5 cells seeded, 10 mL RWV vessel, 8 rpm, 3 days, detached with 5 mM EDTA
[2] = 1st run, 10 μM, 4.9 × 10^5 cells seeded, 10 mL vessel, 3 days, only 5 mM EDTA
[3] = 2nd run, 10 μM, 4.1 × 10^5 cells seeded, 10 mL vessel, 3 days, only 5 mM EDTA

C[C@@H](N)[C@H]1CC[C@H](C(=O)Nc2ccncc2)CC1.Cl.Cl.O (relative stereo) [Y27632, (R)-(+)-trans-N-(4-pyridyl)-4-(1-aminoethyl)-cyclohexanecarboxamide.2HClH2O]
Number of spherical spheroids formed (3 μM, 10 mL vessel, 3 days): 10 | Proliferation rate (total number of cells / cells seeded) [1]: 6.5 fold | Total number of cells [1]: 3.1 × 10^6 cells | Total number of cells (10 μM in mTeSR1, 4.9×10^5 cells seeded, 10 mL RWV vessel, 8 rpm, 3 days, detached with 5 mM EDTA, listed as ROCK inhibitor): 3.1×10^6 cells | Proliferation rate (10 μM, 1.28 × 10^6 cells seeded/10 mL vessel): 1.43-fold | Proliferation rate (10 μM, 4.27 × 10^5 cells seeded/10 mL vessel): 4.78-fold | Formation of spherical spheroids (10 μM, 4.9×10^5 cells seeded, 10 mL vessel, 3 days, inhibitor-free medium gave no spheroids): numerous spherical spheroids were formed | Proliferation rate (10 μM, 8.55 × 10^5 cells seeded/10 mL vessel): 1.93-fold | Number of spherical spheroids formed (10 μM, 10 mL vessel, 3 days): 50 | Proliferation rate versus ROCK inhibitor-free medium (10 μM, 10 mL vessel, experiment repeated a plurality of times): significantly increased | Number of spherical spheroids formed (30 μM, 10 mL vessel, 3 days): 20 | Number of only cells of spheroids [2]: 2.4 × 10^6 cells | Number of spheroids [2]: approximately 130 spheroids | Proliferation rate of only cells of spheroids [2]: 4.9 fold | Number of only cells of spheroids [3]: 1.4 × 10^6 cells | Number of spheroids [3]: approximately 100 spheroids | Proliferation rate (total number of cells) [3]: 5.85 fold | Proliferation rate of only cells of spheroids [3]: 3.41 fold | Total number of cells [3]: 2.4 × 10^6 cells
